According to patent US10047051B2, “Substituted pyridines and method of use” (AbbVie S.á{acute over (.)}r.l., priority 2015, dated 2018):

Key:
CFTR ΔF508 mutant = target: T1, CFTR ΔF508 mutant (Homo sapiens, UniProt P13569, DEL508-508); experiment: YFP-halide influx assay for the CFTR-ΔF508 mutation (CFBE41o- cells); assay type: cell-based; conditions: forskolin 10.67 μM; for EC50: from (1−F/F0) vs concentration plot
T1 construct: expressed in transfected cells; host or cells: CFBE41o- cells, adenoviral transduction
Text: The YFP halide influx assay measured the functionality of the cystic fibrosis Transmembrane Conductance regulator (CFTR) channels in the cystic fibrosis bronchial epithelium cell line CFBE41o-. The assay was used to evaluate the capacity of compounds to increase the open probability of existing CFTR channels in the membrane. It makes use of the observation that the yellow fluorescent protein (YFP) variant YFP H148Q, I152L, F47L has its fluorescence substantially quenched by halide ions like Cl^− and I^− (Galietta, L. J. V., Haggie, P. M., Verkman, A. S., 2001. Green fluorescent protein-based halide indicators with improved chloride and iodide affinities. FEBS Lett. 499, 220-224. doi:10.1016/S0014-5793(01)02561-3; Nagai, T., Ibata, K., Park, E. S., Kubota, M., Mikoshiba, K., Miyawaki, A., 2002. A variant of yellow fluorescent protein with fast and efficient maturation for cell-biological applications. Nat. Biotechnol. 20, 87-90. doi: 10.1038/nbt0102-87).
For this purpose, CFBE41o-cells were seeded in 384 well plates (3000 CFBE cells/well). One day after seeding, the CFBE cells were transduced with adenoviral vectors that direct the expression of the CFTR ΔF508 mutant and of the YFP reporter. Cells were incubated at 27° C., 5% CO2 for 24 hours so as to allow for the proper folding and migration to the membrane of the CFTR channel or treated with a CFTR modulator during 24 hours at 37° C.
(§1) The I-induced quenching of fluorescence was recorded on an immediately after injection of iodide for 2 minutes on an FDSS/μCell (Hamamatsu). The capacity of a compound to increase the channel opening was directly correlated with the decrease in fluorescence, and was expressed as (1−(fluorescence after 36 seconds (F)/fluorescence before injection (F0))) and an EC50 was derived from a (1−F/F0) vs compound concentration plot.

CFTR G551D mutant = target: T2, CFTR G551D mutant (Homo sapiens, UniProt P13569, G551D); experiment: YFP-halide influx assay for the CFTR-G551D mutation (HEK293 cells); assay type: cell-based; conditions: forskolin 10.67 μM
T2 construct: expressed in transfected cells; host or cells: HEK293 cells, reverse transfection with plasmids
Text: The YFP halide influx assay measured the functionality of the cystic fibrosis Transmembrane Conductance regulator (CFTR) channels. The assay was used to evaluate the capacity of compounds to increase the channel opening of existing mutant CFTR channels in the membrane. It makes use of the observation that the yellow fluorescent protein (YFP) variant YFP H148Q, I152L, F47L has its fluorescence substantially quenched by halide ions like Cl^− and I^− (Galietta, L. J. V., Haggie, P. M., Verkman, A. S., 2001. Green fluorescent protein-based halide indicators with improved chloride and iodide affinities. FEBS Lett. 499, 220-224. doi:10.1016/S0014-5793(01)02561-3).
For this purpose, HEK293-cells were seeded in 96 well plates. During seeding, the cells were reverse-transfected with plasmid vectors that direct the expression of the CFTR G551D mutant and of the YFP reporter. Cells were incubated at 37° C., 5% CO2 for 24 hours so as to allow for sufficient expression of the CFTR protein.
as §1, with “I^−-induced” for “I-induced”, “recorded” for “recorded on an”, “I^−” for “iodide”, “7 seconds.” for “2 minutes on an FDSS/μCell (Hamamatsu).”, “7” for “36”

T1 sequence (P13569 with tags, fused parts or gaps DEL508-508): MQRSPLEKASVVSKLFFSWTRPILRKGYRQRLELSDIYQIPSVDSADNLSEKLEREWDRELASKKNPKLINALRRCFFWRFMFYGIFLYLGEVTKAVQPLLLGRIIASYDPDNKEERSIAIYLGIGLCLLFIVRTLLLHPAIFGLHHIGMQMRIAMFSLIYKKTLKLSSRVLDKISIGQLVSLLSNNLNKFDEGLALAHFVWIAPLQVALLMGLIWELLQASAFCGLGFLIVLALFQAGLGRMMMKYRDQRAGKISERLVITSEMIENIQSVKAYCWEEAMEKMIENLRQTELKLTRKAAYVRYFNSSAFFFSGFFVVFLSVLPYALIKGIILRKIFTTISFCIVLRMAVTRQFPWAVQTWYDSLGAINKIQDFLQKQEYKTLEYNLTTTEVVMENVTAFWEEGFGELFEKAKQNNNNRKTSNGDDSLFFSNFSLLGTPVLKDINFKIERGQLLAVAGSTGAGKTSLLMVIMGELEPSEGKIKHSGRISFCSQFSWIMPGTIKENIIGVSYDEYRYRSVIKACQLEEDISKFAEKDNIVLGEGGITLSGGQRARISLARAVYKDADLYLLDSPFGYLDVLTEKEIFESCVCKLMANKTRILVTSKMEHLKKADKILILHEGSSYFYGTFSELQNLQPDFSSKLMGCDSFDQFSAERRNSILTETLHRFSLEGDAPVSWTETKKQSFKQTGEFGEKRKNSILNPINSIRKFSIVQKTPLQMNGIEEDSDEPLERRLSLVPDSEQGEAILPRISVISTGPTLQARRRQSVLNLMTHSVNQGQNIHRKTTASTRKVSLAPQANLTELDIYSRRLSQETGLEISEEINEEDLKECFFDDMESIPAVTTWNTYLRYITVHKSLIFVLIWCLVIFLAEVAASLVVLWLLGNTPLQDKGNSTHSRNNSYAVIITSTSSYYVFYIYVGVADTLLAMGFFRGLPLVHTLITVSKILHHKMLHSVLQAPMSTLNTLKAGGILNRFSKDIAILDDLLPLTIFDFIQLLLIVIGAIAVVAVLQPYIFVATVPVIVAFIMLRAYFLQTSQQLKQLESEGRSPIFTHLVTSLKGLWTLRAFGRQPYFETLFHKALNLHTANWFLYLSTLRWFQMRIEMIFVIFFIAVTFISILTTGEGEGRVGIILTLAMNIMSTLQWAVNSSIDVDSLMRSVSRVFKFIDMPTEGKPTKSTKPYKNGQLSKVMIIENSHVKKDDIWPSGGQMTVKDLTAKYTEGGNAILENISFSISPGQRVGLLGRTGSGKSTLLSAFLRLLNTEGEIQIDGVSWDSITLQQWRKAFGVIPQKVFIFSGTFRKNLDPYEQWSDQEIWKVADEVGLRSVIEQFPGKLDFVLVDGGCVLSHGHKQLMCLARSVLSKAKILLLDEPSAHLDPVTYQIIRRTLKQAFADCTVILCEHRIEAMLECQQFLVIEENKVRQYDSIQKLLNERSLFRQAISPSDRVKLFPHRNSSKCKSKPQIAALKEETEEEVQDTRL
T2 sequence (P13569 whole entry G551D): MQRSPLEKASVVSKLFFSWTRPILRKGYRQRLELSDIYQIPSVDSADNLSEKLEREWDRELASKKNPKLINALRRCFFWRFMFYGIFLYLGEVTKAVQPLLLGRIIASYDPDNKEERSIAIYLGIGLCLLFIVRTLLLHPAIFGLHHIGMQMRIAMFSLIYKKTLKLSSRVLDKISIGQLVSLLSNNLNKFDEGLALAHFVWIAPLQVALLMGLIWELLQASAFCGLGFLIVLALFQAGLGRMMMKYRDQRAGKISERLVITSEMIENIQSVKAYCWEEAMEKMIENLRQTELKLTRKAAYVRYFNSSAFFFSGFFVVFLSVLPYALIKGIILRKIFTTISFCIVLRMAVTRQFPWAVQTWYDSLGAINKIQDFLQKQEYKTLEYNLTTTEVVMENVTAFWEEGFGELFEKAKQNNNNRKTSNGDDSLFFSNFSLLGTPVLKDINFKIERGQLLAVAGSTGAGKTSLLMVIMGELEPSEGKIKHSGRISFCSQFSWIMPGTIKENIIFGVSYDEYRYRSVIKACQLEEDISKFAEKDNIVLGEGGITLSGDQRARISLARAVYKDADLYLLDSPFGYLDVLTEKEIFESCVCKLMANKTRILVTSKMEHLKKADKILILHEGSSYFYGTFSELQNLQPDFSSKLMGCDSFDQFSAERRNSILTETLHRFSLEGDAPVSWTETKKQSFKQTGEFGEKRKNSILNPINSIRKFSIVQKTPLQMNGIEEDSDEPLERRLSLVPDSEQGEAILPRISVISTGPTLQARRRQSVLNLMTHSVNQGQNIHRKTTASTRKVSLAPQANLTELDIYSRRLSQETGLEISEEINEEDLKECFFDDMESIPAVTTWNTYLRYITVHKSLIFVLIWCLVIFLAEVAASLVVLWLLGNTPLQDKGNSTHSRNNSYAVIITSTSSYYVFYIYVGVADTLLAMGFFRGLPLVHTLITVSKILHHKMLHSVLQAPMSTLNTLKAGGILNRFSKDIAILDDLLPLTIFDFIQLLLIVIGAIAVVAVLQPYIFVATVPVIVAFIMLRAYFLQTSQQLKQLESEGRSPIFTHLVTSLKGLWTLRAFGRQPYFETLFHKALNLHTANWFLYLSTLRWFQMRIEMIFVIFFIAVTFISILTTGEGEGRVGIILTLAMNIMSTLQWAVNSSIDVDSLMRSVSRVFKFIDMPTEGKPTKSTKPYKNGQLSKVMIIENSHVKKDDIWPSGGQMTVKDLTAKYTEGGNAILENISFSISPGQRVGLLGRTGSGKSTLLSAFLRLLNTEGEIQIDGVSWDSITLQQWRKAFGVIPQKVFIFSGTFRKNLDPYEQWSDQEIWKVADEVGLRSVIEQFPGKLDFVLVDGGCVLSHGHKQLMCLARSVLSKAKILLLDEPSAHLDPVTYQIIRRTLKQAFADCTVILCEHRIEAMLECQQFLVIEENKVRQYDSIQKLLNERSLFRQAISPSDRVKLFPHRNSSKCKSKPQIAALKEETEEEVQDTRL

Structure (SMILES) | % Activation (CFTR ΔF508 mutant) [%] | EC50 (CFTR ΔF508 mutant) [µM] | % Activation (CFTR G551D mutant) [%] | EC50 (CFTR G551D mutant) [µM]
Nc1cc(S(=O)(=O)c2ccccc2OC(F)(F)F)cnc1C(=O)N[C@@H]1COCC[C@@H]1O (racemic) [Compound 83, rac-3-amino-N-[(3R,4S)-4-hydroxytetrahydro-2H-pyran-3-yl]-5-{[2-(trifluoromethoxy)phenyl]sulfonyl}pyridine-2-carboxamide] | 98.3 | 0.0063 | 90.4 | 1.2
Nc1cc(S(=O)(=O)c2ccc(C(F)(F)F)cc2)cnc1C(=O)N[C@@H]1COCC[C@@H]1O (racemic) [Compound 216, rac-3-amino-N-[(3R,4S)-4-hydroxytetrahydro-2H-pyran-3-yl]-5-{[4-(trifluoromethyl)phenyl]sulfonyl}pyridine-2-carboxamide] | 98.6 | 0.0471 | 47.8 | 1.14
Nc1cc(S(=O)(=O)c2ccc(C(F)(F)F)cc2F)cnc1C(=O)N[C@@H]1COCC[C@@H]1O (racemic) [Compound 218, rac-3-amino-5-{[2-fluoro-4-(trifluoromethyl)phenyl]sulfonyl}-N-[(3R,4S)-4-hydroxytetrahydro-2H-pyran-3-yl]pyridine-2-carboxamide] | 105.8 | 0.0444 | 43.8 | 1.52
C[C@H](O)CNC(=O)c1ncc(S(=O)(=O)N2CCCC2CO)cc1N (mixture of isomers) [Compound 268, 3-amino-5-{[2-(hydroxymethyl)pyrrolidin-1-yl]sulfonyl}-N-[(2S)-2-hydroxypropyl]pyridine-2-carboxamide] | 37.1 | > 0.667 | 0.3 | 
Nc1cc(S(=O)(=O)c2ccc(OC(F)(F)F)cc2)cnc1C(=O)N1CCC(O)C1 (stereo not drawn) [Compound 4, (3-amino-5-{[4-(trifluoromethoxy)phenyl]sulfonyl}pyridin-2-yl)(3-hydroxypyrrolidin-1-yl)methanone] | 92.1 | 0.206 | 43.6 | 5.77
CN1CCC(O)(CNC(=O)c2ncc(S(=O)(=O)c3ccc(OC(F)(F)F)cc3)cc2N)CC1 [Compound 5, 3-amino-N-[(4-hydroxy-1-methylpiperidin-4-yl)methyl]-5-{[4-(trifluoromethoxy)phenyl]sulfonyl}pyridine-2-carboxamide] | 14.8 | > 2 | 1.7 | > 10
Nc1cc(S(=O)(=O)c2ccc(OC(F)(F)F)cc2)cnc1C(=O)NCC1COCCO1 (stereo not drawn) [Compound 8, 3-amino-N-(1,4-dioxan-2-ylmethyl)-5-{[4-(trifluoromethoxy)phenyl]sulfonyl}pyridine-2-carboxamide] | 109.5 | 0.0721 | 67.5 | 1.2
Nc1cc(S(=O)(=O)c2ccc(OC(F)(F)F)cc2)cnc1C(=O)NCCN1CCOCC1 [Compound 9, 3-amino-N-[2-(morpholin-4-yl)ethyl]-5-{[4-(trifluoromethoxy)phenyl]sulfonyl}pyridine-2-carboxamide] | 97.5 | 0.161 | 59.5 | > 3.33
CC(C)(O)CNC(=O)c1ncc(S(=O)(=O)c2ccc(F)cc2)cc1N [Compound 10, 3-amino-5-[(4-fluorophenyl)sulfonyl]-N-(2-hydroxy-2-methylpropyl)pyridine-2-carboxamide] | 106.4 | 0.148 | 52.2 | > 3.33
CCC(CO)NC(=O)c1ncc(S(=O)(=O)c2ccc(OC(F)(F)F)cc2)cc1N (stereo not drawn) [Compound 12, 3-amino-N-(1-hydroxybutan-2-yl)-5-{[4-(trifluoromethoxy)phenyl]sulfonyl}pyridine-2-carboxamide] | 114.5 | 0.0361 | 43.8 | 0.692
CC(C)C(CO)NC(=O)c1ncc(S(=O)(=O)c2ccc(OC(F)(F)F)cc2)cc1N (stereo not drawn) [Compound 13, 3-amino-N-(1-hydroxy-3-methylbutan-2-yl)-5-{[4-(trifluoromethoxy)phenyl]sulfonyl}pyridine-2-carboxamide] | 101.0 | 0.0399 | 21.3 | > 10
Nc1cc(S(=O)(=O)c2ccc(OC(F)(F)F)cc2)cnc1C(=O)NCC1(CO)CC1 [Compound 22, 3-amino-N-{[1-(hydroxymethyl)cyclopropyl]methyl}-5-{[4-(trifluoromethoxy)phenyl]sulfonyl}pyridine-2-carboxamide] | 102.2 | 0.0541 | 53.2 | 0.778
Nc1cc(S(=O)(=O)c2ccc(OC(F)(F)F)cc2)cnc1C(=O)NCC1(CO)CCC1 [Compound 23, 3-amino-N-{[1-(hydroxymethyl)cyclobutyl]methyl}-5-{[4-(trifluoromethoxy)phenyl]sulfonyl}pyridine-2-carboxamide] | 103.9 | 0.0782 | 57.4 | 2.15
Nc1cc(S(=O)(=O)c2ccc(F)cc2)cnc1C(=O)NCC(O)C(F)(F)F (stereo not drawn) [Compound 27, 3-amino-5-[(4-fluorophenyl)sulfonyl]-N-(3,3,3-trifluoro-2-hydroxypropyl)pyridine-2-carboxamide] | 101.0 | 0.0101 | 55.0 | 1.24
Nc1cc(S(=O)(=O)c2ccc(OC(F)(F)F)cc2)cnc1C(=O)NCC1(O)CCOC1 (stereo not drawn) [Compound 28, 3-amino-N-[(3-hydroxytetrahydrofuran-3-yl)methyl]-5-{[4-(trifluoromethoxy)phenyl]sulfonyl}pyridine-2-carboxamide] | 97.2 | 0.0504 | 51.9 | 2.33
Nc1cc(S(=O)(=O)c2ccc(OC(F)(F)F)cc2)cnc1C(=O)NCC1(O)CCOCC1 [Compound 29, 3-amino-N-[(4-hydroxytetrahydro-2H-pyran-4-yl)methyl]-5-{[4-(trifluoromethoxy)phenyl]sulfonyl}pyridine-2-carboxamide] | 94.1 | 0.0546 | 58.7 | 1.5
Nc1cc(S(=O)(=O)c2ccc(F)cc2)cnc1C(=O)NCC1(O)CC1 [Compound 30, 3-amino-5-[(4-fluorophenyl)sulfonyl]-N-[(1-hydroxycyclopropyl)methyl]pyridine-2-carboxamide] | 94.6 | 0.0537 | 36.4 | 5.77
CC(C)(CCO)CNC(=O)c1ncc(S(=O)(=O)c2ccc(OC(F)(F)F)cc2)cc1N [Compound 34, 3-amino-N-(4-hydroxy-2,2-dimethylbutyl)-5-{[4-(trifluoromethoxy)phenyl]sulfonyl}pyridine-2-carboxamide] | 99.0 | 0.0911 | 70.2 | 1.48
Nc1cc(S(=O)(=O)c2ccccc2)c(C2CC2)nc1C(=O)NCCO [Compound 260, 3-amino-6-cyclopropyl-N-(2-hydroxyethyl)-5-(phenylsulfonyl)pyridine-2-carboxamide] | 85.2 | 0.0425 |  | 
COC[C@H](O)CNC(=O)c1ncc(S(=O)(=O)c2ccccc2)cc1N [Compound 296, 3-amino-N-[(2R)-2-hydroxy-3-methoxypropyl]-5-(phenylsulfonyl)pyridine-2-carboxamide] | 82.1 | 0.04 |  | 
